Here are results for four molecules from DBAASP.

Values after ≈ are worked out from the molar mass of the structure shown. Values joined by “and” are separate entries in the source; they are usually repeats but may differ in a detail not shown here. Equal values may be shown once.

What all share (assay): ≥ marks a high value that may be exact or a test limit, other limits are often not marked, values filed in µg/mL are converted to µM
Experiment [1] relates to Carnobacterium mobile.
Experiment [2] deals with Fusarium oxysporum.
Experiment [3] concerns Pseudomonas aeruginosa KCTC 1637.
In experiment [4] the test system is Proteus vulgaris.
The subject of experiment [5] is Staphylococcus aureus KCTC 1621.
In experiment [6] the test system is Aspergillus flavus KCTC 7375.
Experiment [7] has as its system Escherichia coli KCTC 1682.
The test system of experiment [8] is Candida albicans KCTC 7121.
Experiment [9] has as its system Fusarium oxysporum KCTC 6084.
Experiment [10] concerns Bacillus megaterium KCTC 1096.
Experiment [11] relates to Trichosporon beigelii KCTC 7251.
Experiment [12] deals with Bacillus subtilis KCTC 1918.
Experiment [13] has as its system Lactiplantibacillus plantarum CGMCC 1.511.
Experiment [14] concerns Salmonella sp. CGMCC 1.1552.
The test system of experiment [15] is Bacillus subtilis CGMCC 1.1627.
Experiment [16] has as its system Staphylococcus aureus CGMCC 1.879.
Experiment [17] relates to Enterococcus faecalis CGMCC 1.125.
For experiment [18], the system named is Pseudomonas aeruginosa CGMCC 1.647.
Experiment [19] relates to Lactococcus lactis ATCC 15577.
In experiment [20] the test system is Shigella flexneri CGMCC 1.1868.
Experiment [21] has as its system Staphylococcus aureus CGMCC 1.2386.
The test system of experiment [22] is Lactiplantibacillus plantarum CGMCC 1.556.
The subject of experiment [23] is Escherichia coli JM109.
Experiment [24] has as its system Staphylococcus aureus CGMCC 1.128.
The subject of experiment [25] is Listeria monocytogenes ATCC 7648.
Experiment [26] has as its system Pseudomonas putida CGMCC 1.645.
Experiment [27] concerns Escherichia coli CGMCC 1.1580.
The subject of experiment [28] is Lactiplantibacillus plantarum CGMCC 1.124.
The test system of experiment [29] is Micrococcus luteus CGMCC 1.193.
Experiment [30] deals with Staphylococcus aureus ATCC 6538P.
Experiment [31] relates to Lactiplantibacillus plantarum CGMCC 1.11.
Experiment [32] has as its system Shigella dysenteriae ATCC 9753.
In experiment [33] the test system is Lactiplantibacillus plantarum CGMCC 1.551.
For experiment [34], the system named is Salmonella enterica subsp. enterica serovar Typhimurium ATCC 14028.
Experiment [35] concerns Campylobacter jejuni ATCC 33291.
The test system of experiment [36] is Streptococcus pyogenes ATCC 19615.
Experiment [37] concerns Saccharomyces cerevisiae.
The subject of experiment [38] is Bacillus cereus ATCC 9193.
Experiment [39] has as its system Staphylococcus aureus ATCC 29213.
Experiment [40] concerns Pseudomonas aeruginosa ATCC 27853.
For experiment [41], the system named is Candida albicans.
The subject of experiment [42] is Clostridium perfringens ATCC 12915.

Regarding `CSCC[C@H](N)C(=O)N[C@@H](C)C(=O)N[C@@H](CO)C(=O)N[C@@H](CCCN=C(N)N)C(=O)N[C@@H](C)C(=O)N[C@@H](C)C(=O)N[C@@H](CCCN=C(N)N)C(=O)N[C@@H](CC(C)C)C(=O)N[C@@H](C)C(=O)N[C@@H](C)C(=O)N[C@@H](CCCN=C(N)N)C(=O)N[C@@H](CC(C)C)C(=O)N[C@@H](C)C(=O)N[C@@H](CCCN=C(N)N)C(=O)N[C@@H](CC(C)C)C(=O)N[C@@H](C)C(=O)N[C@@H](CC(C)C)C(=O)N[C@@H](CCCN=C(N)N)C(=O)N[C@@H](C)C(=O)N[C@@H](CC(C)C)C(=O)O` [MASRAARLAARLARLALRAL], the MIC (usually the least concentration at which growth counts as inhibited) in experiment [1] turned out to be 0.0025 µM (≈ 0.00538 µg/mL); in experiment [2], 0.1 µM (≈ 0.215 µg/mL).

For the molecule `CC[C@H](C)[C@H](NC(=O)[C@H](CCCCN)NC(=O)[C@H](CCCCN)NC(=O)[C@H](Cc1ccccc1)NC(=O)[C@H](CC(C)C)NC(=O)[C@H](CCCCN)NC(=O)[C@H](Cc1c[nH]c2ccccc12)NC(=O)[C@@H](N)CCCCN)C(=O)N1CCC[C@H]1C(=O)N[C@@H](CCCCN)C(=O)N[C@@H](Cc1ccccc1)C(=O)N[C@@H](CC(C)C)C(=O)N[C@@H](Cc1cnc[nH]1)C(=O)N[C@@H](CC(C)C)C(N)=O` [KWKLFKKIPKFLHL], the minimum inhibitory concentration (MIC) was 6.25 µM (≈ 11.4 µg/mL) in [3]; 3.12 µM (≈ 5.7 µg/mL) in [4]; 6.25 µM (≈ 11.4 µg/mL) in experiment [5]; no less than 100 µM in experiment [6]; 6.25 µM (≈ 11.4 µg/mL) in [7]; no less than 100 µM in experiment [8]. The MIC in experiment [9] was no less than 100 µM; in [10] it was 3.12 µM (≈ 5.7 µg/mL); in experiment [11], no less than 100 µM; in experiment [12], 1.56 µM (≈ 2.85 µg/mL).

On to `CC[C@H](C)[C@H](NC(=O)[C@H](CC(C)C)NC(=O)[C@H](Cc1ccccc1)NC(=O)[C@H](CCC(N)=O)NC(=O)[C@H](CCC(N)=O)NC(=O)[C@H](CCCCN)NC(=O)[C@@H](NC(=O)[C@@H](N)CCCCN)[C@@H](C)O)C(=O)N[C@@H](CCCCN)C(=O)N[C@@H](C)C(=O)N[C@@H](CCC(N)=O)C(=O)N[C@H](C(=O)N[C@@H](CCC(N)=O)C(=O)N[C@@H](CC(C)C)C(=O)N[C@@H](Cc1ccccc1)C(=O)N[C@@H](CCCCN)C(=O)N[C@H](C(=O)N[C@@H](Cc1ccccc1)C(=O)NCC(=O)N[C@@H](Cc1ccc(O)cc1)C(=O)N[C@H](C(=O)N[C@@H](CC(C)C)C(=O)O)[C@@H](C)O)C(C)C)[C@@H](C)O` [KTKQQFLIKAQTQLFKVFGYTL], for which the minimal inhibitory concentration (MIC) in experiment [13] amounted to 1.35 µM (≈ 3.56 µg/mL); in [14] it was 0.136 µM (≈ 0.358 µg/mL); in experiment [15], 0.121 µM (≈ 0.318 µg/mL); in experiment [16] it was 0.132 µM (≈ 0.347 µg/mL); in experiment [17], 0.146 µM (≈ 0.384 µg/mL); in experiment [18], 0.144 µM (≈ 0.379 µg/mL). Further, the MIC in experiment [19] was determined as 1.23 µM (≈ 3.22 µg/mL); in experiment [20], 0.135 µM (≈ 0.355 µg/mL); in experiment [21] it was 0.21 µM (≈ 0.553 µg/mL); in experiment [22] it was 0.682 µM (≈ 1.79 µg/mL); in [23] it was 0.135 µM (≈ 0.355 µg/mL); in experiment [24] it was 0.218 µM (≈ 0.574 µg/mL). In addition, the MIC in experiment [25] was found to be 0.112 µM (≈ 0.295 µg/mL); in experiment [26], 0.075 µM (≈ 0.197 µg/mL); in [27] it was 0.235 µM (≈ 0.618 µg/mL); in [28], 0.242 µM (≈ 0.637 µg/mL); in experiment [29] it was 0.153 µM (≈ 0.403 µg/mL); in experiment [30], 0.178 µM (≈ 0.468 µg/mL). For the same molecule, the minimum inhibitory concentration (MIC) in experiment [31] was 0.885 µM (≈ 2.33 µg/mL); in experiment [32] it was 0.185 µM (≈ 0.487 µg/mL); in experiment [33], 0.722 µM (≈ 1.9 µg/mL).

`CC[C@H](C)[C@@H]1NC(=O)[C@H](CC(=O)O)NC(=O)[C@H](C(C)C)NC(=O)[C@H](CO)NC(=O)[C@@H]2CCCN2C(=O)[C@H](C)NC(=O)[C@H](CCCN=C(N)N)NC(=O)[C@@H]2CSSC[C@@H](C(=O)N[C@@H](CCCCN)C(=O)N[C@@H](Cc3c[nH]c4ccccc34)C(=O)N[C@@H](C)C(=O)N3CCC[C@H]3C(=O)N[C@@H](CO)C(=O)N[C@@H](CO)C(=O)O)NC(=O)[C@@H]3CSSC[C@H](NC(=O)[C@H](C)NC(=O)[C@H](CC(C)C)NC(=O)[C@@H](NC(=O)[C@@H](N)CC(=O)O)[C@@H](C)O)C(=O)N[C@@H](CCCN=C(N)N)C(=O)N[C@@H](CCC(N)=O)C(=O)N[C@@H](CO)C(=O)N[C@@H](Cc4cnc[nH]4)C(=O)NCC(=O)N[C@@H](CO)C(=O)N[C@@H](CSSC[C@H](NC(=O)[C@H]([C@@H](C)O)NC(=O)CNC1=O)C(=O)N[C@@H](CCCN=C(N)N)C(=O)NCC(=O)NCC(=O)N[C@@H](CCCCN)C(=O)N[C@@H](CC(C)C)C(=O)N[C@@H](CCCCN)C(=O)N3)C(=O)N[C@@H](CO)C(=O)N[C@@H](Cc1ccccc1)C(=O)N[C@@H](C(C)C)C(=O)N[C@@H](C)C(=O)N2` [DTLACRQSHGSCSFVACRAPSVDIGTCRGGKLKCCKWAPSS]: the minimal inhibitory concentration (MIC) was > 29.9 µM and 59.7 µM in [34]; 14.9 µM (≈ 63.9 µg/mL) in [35]; 14.9 µM (≈ 63.9 µg/mL) in experiment [36]; 1.87 µM (≈ 7.99 µg/mL) in experiment [37]; 29.9 µM (≈ 128 µg/mL) in [38]; > 29.9 µM and 59.7 µM in experiment [39]. Further, the MIC was greater than 29.9 µM in [40], 1.87 µM (≈ 7.99 µg/mL) in experiment [41] and 1.87 µM (≈ 7.99 µg/mL) in [42].
